Reference: patent publication US9732051B2, “Isothiazoline compounds for combating invertebrate pests” (BASF SE, priority 2011, dated 2017)

Legend:
Type in all cases: in vivo
Anthonomus grandis = experiment: Boll weevil microtiter plate diet test, egg and larval mortality; details: 120 h, 5 days, in comparison with untreated controls
Procedure: B.12 Boll Weevil (Anthonomus grandis)
For evaluating control of boll weevil (Anthonomusgrandis) the test unit consisted of 24-well-microtiter plates containing an insect diet and 20-30 A. grandis eggs.
The compounds were formulated using a solution containing 75% v/v water and 25% v/v DMSO. Different concentrations of formulated compounds were sprayed onto the insect diet at 20 μl, using a custom built micro atomizer, at two replications.
After application, microtiter plates were incubated at about 23±1° C. and about 50±5% relative humidity for 5 days. Egg and larval mortality was then visually assessed.

Spodoptera eridania = experiment: Southern armyworm spray test on lima bean plants; details: 96 h, 4 days after treatment, in comparison with untreated controls
Procedure: B.9 Southern Armyworm (Spodoptera eridania)
(§1) The active compounds were formulated in cyclohexanone as a 10,000 ppm solution supplied in tubes. The tubes were inserted into an automated electrostatic sprayer equipped with an atomizing nozzle and they served as stock solutions for which lower dilutions were made in 50% acetone:50% water (v/v). A nonionic surfactant (Kinetic®) was included in the solution at a volume of 0.01% (v/v).
Lima bean plants (variety Sieva) were grown 2 plants to a pot and selected for treatment at the 1st true leaf stage. Test solutions were sprayed onto the foliage by an automated electrostatic plant sprayer equipped with an atomizing spray nozzle. The plants were dried in the sprayer fume hood and then removed from the sprayer. Each pot was placed into perforated plastic bags with a zip closure. About 10 to 11 armyworm larvae were placed into the bag and the bags zipped closed. Test plants were maintained in a growth room at about 25° C. and about 20-40% relative humidity for 4 days, avoiding direct exposure to fluorescent light (24 hour photoperiod) to prevent trapping of heat inside the bags. Mortality and reduced feeding were assessed 4 days after treatment, compared to untreated control plants.

Myzus persicae = experiment: Green peach aphid systemic test, artificial diet in 96-well plates; details: 72 h, 3 days, in comparison with untreated controls
Text: B.4 Green Peach Aphid (Myzus persicae)
For evaluating control of green peach aphid (Myzus persicae) through systemic means the test unit consisted of 96-well-microtiter plates containing liquid artificial diet under an artificial membrane.
The compounds were formulated using a solution containing 75% v/v water and 25% v/v DMSO. Different concentrations of formulated compounds were pipetted into the aphid diet, using a custom built pipetter, at two replications.
After application, 5-8 adult aphids were placed on the artificial membrane inside the microtiter plate wells. The aphids were then allowed to suck on the treated aphid diet and incubated at about 23±1° C. and about 50±5% relative humidity for 3 days. Aphid mortality and fecundity was then visually assessed.

Plutella xylostella = experiment: Diamond back moth leaf dip test; details: foliar, recorded 24, 72 and 120 hours after treatment, in comparison with untreated controls
Procedure: B.3 Diamond Back Moth (Plutella xylostella)
Leaves of Chinese cabbage were dipped in test solution and air-dried. Treated leaves were placed in petri dished lined with moist filter paper. Mortality was recorded 24, 72, and 120 hours after treatment.

Heliothis virescens = experiment: Tobacco budworm microtiter plate diet test, egg and larval mortality; details: 120 h, 5 days, in comparison with untreated controls
Procedure: B.11 Tobacco Budworm (Heliothis virescens) I
For evaluating control of tobacco budworm (Heliothis virescens) the test unit consisted of 96-well-microtiter plates containing an insect diet and 15-25 H. virescens eggs. The compounds were formulated using a solution containing 75% v/v water and 25% v/v DMSO. Different concentrations of formulated compounds were sprayed onto the insect diet at 10 μl, using a custom built micro atomizer, at two replications.
(§2) After application, microtiter plates were incubated at about 28±1° C. and about 80±5% relative humidity for 5 days. Egg and larval mortality was then visually assessed.

Megoura viciae = experiment: Vetch aphid leaf disk test in 24-well plates; details: foliar, 120 h, 5 days, in comparison with untreated controls
Procedure: B.10 Vetch Aphid (Megoura viciae)
For evaluating control of vetch aphid (Megoura viciae) through contact or systemic means the test unit consisted of 24-well-microtiter plates containing broad bean leaf disks.
The compounds were formulated using a solution containing 75% v/v water and 25% v/v DMSO. Different concentrations of formulated compounds were sprayed onto the leaf disks at 2.5 μl, using a custom built micro atomizer, at two replications.
After application, the leaf disks were air-dried and 5-8 adult aphids placed on the leaf disks inside the microtiter plate wells. The aphids were then allowed to suck on the treated leaf disks and incubated at about 23±1° C. and about 50±5% relative humidity for 5 days. Aphid mortality and fecundity was then visually assessed.

Dichromothrips corbetti = experiment: Orchid thrips floral-immersion test; details: 96 h, after 4 days, in comparison with untreated controls
Procedure: B.6 Orchid Thrips (Dichromothrips corbetti)
Dichromothrips corbetti adults used for bioassay were obtained from a colony maintained continuously under laboratory conditions. For testing purposes, the test compound was diluted to a concentration of 500 ppm (wt compound: vol diluent) in a 1:1 mixture of acetone:water (vol:vol), plus 0.01% vol/vol Kinetic® surfactant.
Thrips potency of each compound was evaluated by using a floral-immersion technique. Plastic petri dishes were used as test arenas. All petals of individual, intact orchid flowers were dipped into treatment solution and allowed to dry. Treated flowers were placed into individual petri dishes along with 10-15 adult thrips. The petri dishes were then covered with lids. All test arenas were held under continuous light and a temperature of about 28° C. for duration of the assay. After 4 days, the numbers of live thrips were counted on each flower, and along inner walls of each petri dish. The level of thrips mortality was extrapolated from pre-treatment thrips numbers.

Ceratitis capitata = experiment: Mediterranean fruitfly microtiter plate diet test, egg and larval mortality; details: 120 h, 5 days, in comparison with untreated controls
Procedure: B.5 Mediterranean Fruitfly (Ceratitis capitata)
For evaluating control of Mediterranean fruitfly (Ceratitis capitata) the test unit consisted of microtiter plates containing an insect diet and 50-80 C. capitata eggs.
The compounds were formulated using a solution containing 75% v/v water and 25% v/v DMSO. Different concentrations of formulated compounds were sprayed onto the insect diet at 5 μl, using a custom built micro atomizer, at two replications.
as §2

Tetranychus kanzawai = experiment: Red spider mite spray test on cowpea beans; details: after 72 h, in comparison with untreated controls
Procedure: B.14 Red Spider Mite (Tetranychus kanzawai)
The active compound was dissolved at the desired concentration in a mixture of 1:1 (v/v) distilled water:acetone. A surfactant (Alkamuls® EL 620) was added at the rate of 0.1% (v/v).
Potted cowpea beans of 7-10 days of age were cleaned with tap water and sprayed with 5 ml of the test solution using air driven hand atomizer. The treated plants were allowed to air dry and afterwards inculated with 20 or more mites by clipping a cassava leaf section with known mite population. Treated plants were placed inside a holding room at about 25-27° C. and about 50-60% relatice humidity.
Mortality was determined by counting the live mites 72 HAT. Percent mortality was assessed after 72 h.

Nephotettix virescens = experiment: Rice green leafhopper spray test on rice seedlings; details: after 72 hours, in comparison with untreated controls
Procedure: B.7 Rice Green Leafhopper (Nephotettix virescens)
Rice seedlings were cleaned and washed 24 hours before spraying. The active compounds were formulated in 50:50 acetone:water (vol:vol), and 0.1% vol/vol surfactant (EL 620) was added. Potted rice seedlings were sprayed with 5 ml test solution, air dried, placed in cages and inoculated with 10 adults. Treated rice plants were kept at about 28-29° C. and relative humidity of about 50-60%. Percent mortality was recorded after 72 hours.

[1] = tested on: Leptinotarsa decemlineata; experiment: Colorado potato beetle spray test on eggplant foliage; details: foliar, 96 h, 4 days after treatment, in comparison with untreated controls
Procedure: B.13 Colorado Potato Beetle (Leptinotarsa decemlineata)
as §1
Eggplants were grown 2 plants to a pot and were selected for treatment at the 1st true leaf stage. Test solutions were sprayed onto the foliage by an automated electrostatic plant sprayer equipped with an atomizing spray nozzle. The plants were dried in the sprayer fume hood and then removed from the sprayer. The treated foliage was then cut and removed from the pot and placed in a 5-inch Petri dish lined with moistened filter paper. Five beetle larvae were introduced into each Petri dish and the dish was covered by a Petri dish lid. Petri dishes were maintained in a growth room at 25° C. and 20-40% relative humidity for 4 days, avoiding direct exposure to fluorescent light (24 hour photoperiod) to prevent trapping of heat inside the dishes. Mortality and reduced feeding were assessed 4 days after treatment, compared to untreated control plants.

Aphis craccivora = experiment: Cowpea aphid spray test on potted cowpea plants; details: assessed after 24, 72 and 120 hours, in comparison with untreated controls
Procedure: B.2 Cowpea Aphid (Aphis craccivora)
Potted cowpea plants colonized with approximately 100-150 aphids of various stages were sprayed after the pest population had been recorded. Population reduction was assessed after 24, 72, and 120 hours.

CCNC(=O)N/N=C/c1ccc(C2=NSC(c3cc(Cl)cc(Cl)c3)(C(F)(F)F)C2)cc1C (stereo not drawn) [Compound 1-5, 1-[(E)-[4-[5-(3,5-dichlorophenyl)-5-(trifluoromethyl)-4H-isothiazol-3-yl]-2-methyl-phenyl]methyleneamino]-3-ethyl-urea]
≥ 75%: mortality at 2500 ppm (Anthonomus grandis) | mortality at 1 ppm (Spodoptera eridania) | mortality at 2500 ppm (Myzus persicae) | mortality at 500 ppm (Plutella xylostella) | mortality at 2500 ppm (Heliothis virescens) | mortality at 2500 ppm (Megoura viciae) | mortality at 500 ppm (Dichromothrips corbetti) | mortality at 2500 ppm (Ceratitis capitata)

Cc1cc(C2=NSC(c3cc(Cl)cc(Cl)c3)(C(F)(F)F)C2F)ccc1C(=O)NCC(=O)NCC(F)(F)F (stereo not drawn) [Compound 5-1, 4-[5-(3,5-dichlorophenyl)-4-fluoro-5-(trifluoromethyl)-4H-isothiazol-3-yl]-2-methyl-N-[2-oxo-2-(2,2,2-trifluoroethylamino)ethyl]benzamide]
≥ 75%: mortality at 2500 ppm (Anthonomus grandis) | mortality at 2500 ppm (Myzus persicae) | mortality at 500 ppm (Plutella xylostella) | mortality at 2500 ppm (Heliothis virescens) | mortality at 2500 ppm (Megoura viciae) | mortality at 500 ppm (Dichromothrips corbetti) | mortality at 500 ppm (Tetranychus kanzawai) | mortality at 2500 ppm (Ceratitis capitata)

CCSCC(=O)N(CC)Cc1ccc(C2=NSC(c3cc(Cl)cc(Cl)c3)(C(F)(F)F)C2)cc1C (stereo not drawn) [Compound 3-3, N-[[4-[5-(3,5-Dichlorophenyl)-5-(trifluoromethyl)-4H-isothiazol-3-yl]-2-methyl-phenyl]methyl]-N-ethyl-2-ethylsulfanyl-acetamide]
≥ 75%: mortality at 2500 ppm (Anthonomus grandis) | mortality at 1 ppm (Spodoptera eridania) | mortality at 2500 ppm (Myzus persicae) | mortality at 500 ppm (Plutella xylostella) | mortality at 2500 ppm (Heliothis virescens) | mortality at 500 ppm (Nephotettix virescens) | mortality at 500 ppm (Dichromothrips corbetti) | mortality at 2500 ppm (Ceratitis capitata)

Cc1cc(C2=NSC(c3cc(Cl)cc(Cl)c3)(C(F)(F)F)C2)ccc1C(=O)NCC(=O)NCC(F)(F)F (stereo not drawn) [Compound 2-1, 4-[5-(3,5-Dichlorophenyl)-5-trifluoromethyl-4H-isothiazol-3-yl]-2-methyl-N-[2-oxo-2-(2,2,2-trifluoroethylamino)ethyl]benzamide]
≥ 75%: mortality at 2500 ppm (Anthonomus grandis) | mortality at 1 ppm (Spodoptera eridania) | mortality at 2500 ppm (Myzus persicae) | mortality at 500 ppm (Plutella xylostella) | mortality at 2500 ppm (Heliothis virescens) | mortality at 500 ppm (Nephotettix virescens) | mortality at 1 ppm [1] | mortality at 2500 ppm (Megoura viciae) | mortality at 500 ppm (Aphis craccivora) | mortality at 500 ppm (Dichromothrips corbetti) | mortality at 500 ppm (Tetranychus kanzawai) | mortality at 2500 ppm (Ceratitis capitata)
